Assay results: ChEMBL document CHEMBL1152299, “Indazole-based liver X receptor (LXR) modulators with maintained atherosclerotic lesion reduction activity but diminished stimulation of hepatic triglyceride synthesis” (J Med Chem, 2008)

Assays:
HepG2 [1] = assay: Effect on SREBP1c gene expression in human HepG2 cells relative to TO901317; format: functional
HepG2 [2] = assay: Effect on triglyceride accumulation in human HepG2 cells relative to TO901317; format: functional
HepG2 [3] = assay: Effect on triglyceride accumulation in human HepG2 cells; format: functional, cell-based
THP-1 [4] = assay: Stimulation of [3H]cholesterol efflux in human THP1 foam cells loaded with ac-LDL; format: functional, cell-based
[5] = target: T1, Nuclear receptor subfamily 1 group I member 2 (Homo sapiens, UniProt O75469)
T1 sequence (O75469 whole entry): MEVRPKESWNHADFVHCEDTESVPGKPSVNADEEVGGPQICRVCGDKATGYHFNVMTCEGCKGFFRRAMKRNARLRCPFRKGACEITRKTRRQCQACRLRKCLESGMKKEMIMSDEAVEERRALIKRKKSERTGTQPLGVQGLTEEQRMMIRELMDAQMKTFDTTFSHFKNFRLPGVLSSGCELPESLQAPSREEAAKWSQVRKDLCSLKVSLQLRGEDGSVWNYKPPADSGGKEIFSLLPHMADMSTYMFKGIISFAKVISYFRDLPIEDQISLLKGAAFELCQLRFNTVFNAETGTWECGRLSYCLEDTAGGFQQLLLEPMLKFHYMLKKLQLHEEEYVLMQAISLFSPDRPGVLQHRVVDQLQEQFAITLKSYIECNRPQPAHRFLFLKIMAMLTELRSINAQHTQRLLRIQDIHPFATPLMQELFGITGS

THP-1 [6] = assay: Effect on ABCA1 gene expression in human differentiated THP1 cells; format: functional, cell-based
[7] = target: T2, Oxysterols receptor LXR-beta (Homo sapiens, UniProt P55055)
T2 sequence (P55055 whole entry): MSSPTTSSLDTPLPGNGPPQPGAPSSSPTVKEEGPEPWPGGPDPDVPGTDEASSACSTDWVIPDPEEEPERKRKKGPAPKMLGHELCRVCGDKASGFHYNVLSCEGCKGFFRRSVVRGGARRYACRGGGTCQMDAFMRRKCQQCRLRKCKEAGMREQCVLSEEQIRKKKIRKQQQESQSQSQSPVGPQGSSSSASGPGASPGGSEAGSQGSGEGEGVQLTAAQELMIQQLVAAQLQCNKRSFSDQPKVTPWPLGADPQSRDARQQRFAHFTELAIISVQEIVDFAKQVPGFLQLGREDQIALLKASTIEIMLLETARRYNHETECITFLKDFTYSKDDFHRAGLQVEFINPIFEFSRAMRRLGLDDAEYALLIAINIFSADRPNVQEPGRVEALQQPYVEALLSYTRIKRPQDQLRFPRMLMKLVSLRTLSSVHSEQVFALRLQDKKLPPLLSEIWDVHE

[8] = target: T2, Oxysterols receptor LXR-beta; assay: Agonist activity at human recombinant LXRbeta ligand binding domain in human HuH7 cells co-transfected with fused Gal4-DBD by transactivation assay; format: cell-based, Huh-7
Progesterone receptor = target: T3, Progesterone receptor (Homo sapiens, UniProt P06401); assay: Displacement of radiolabeled progesterone from human progesterone receptor by filter paper assay
T3 sequence (P06401 whole entry): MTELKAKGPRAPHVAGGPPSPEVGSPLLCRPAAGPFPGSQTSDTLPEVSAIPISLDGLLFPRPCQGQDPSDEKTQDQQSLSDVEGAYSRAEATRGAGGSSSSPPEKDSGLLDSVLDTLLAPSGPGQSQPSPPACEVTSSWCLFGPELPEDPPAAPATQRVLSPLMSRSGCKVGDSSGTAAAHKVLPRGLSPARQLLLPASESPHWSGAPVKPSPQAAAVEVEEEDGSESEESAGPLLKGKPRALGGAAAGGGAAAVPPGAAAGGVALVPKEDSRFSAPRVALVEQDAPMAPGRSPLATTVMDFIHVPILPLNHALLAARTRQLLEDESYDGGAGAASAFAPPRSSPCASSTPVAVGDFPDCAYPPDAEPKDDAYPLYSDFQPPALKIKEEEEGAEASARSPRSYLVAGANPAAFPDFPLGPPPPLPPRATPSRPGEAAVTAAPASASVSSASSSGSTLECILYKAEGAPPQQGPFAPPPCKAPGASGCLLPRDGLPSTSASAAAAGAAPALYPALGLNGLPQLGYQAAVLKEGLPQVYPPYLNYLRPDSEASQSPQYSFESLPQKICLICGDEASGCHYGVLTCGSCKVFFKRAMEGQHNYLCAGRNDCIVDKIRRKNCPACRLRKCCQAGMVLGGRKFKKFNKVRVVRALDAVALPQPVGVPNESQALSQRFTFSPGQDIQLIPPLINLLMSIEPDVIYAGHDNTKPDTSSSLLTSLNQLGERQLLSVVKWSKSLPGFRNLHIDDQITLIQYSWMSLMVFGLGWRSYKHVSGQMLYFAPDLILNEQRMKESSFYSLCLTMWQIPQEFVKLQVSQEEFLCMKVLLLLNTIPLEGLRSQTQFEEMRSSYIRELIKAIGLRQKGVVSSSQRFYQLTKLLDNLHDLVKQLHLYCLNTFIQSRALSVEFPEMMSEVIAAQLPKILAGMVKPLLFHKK

[9] = target: T4, Oxysterols receptor LXR-alpha (Homo sapiens, UniProt Q13133)
THP-1 [10] = assay: Stimulation of [3H]cholesterol efflux in human THP1 foam cells loaded with ac-LDL relative to TO901317; format: functional
THP-1 [11] = assay: Effect on ABCA1 gene expression in human differentiated THP1 cells relative to TO901317; format: functional
[12] = target: T4, Oxysterols receptor LXR-alpha; remark: listed apart in the source
HepG2 [13] = assay: Effect on SREBP1c gene expression in human HepG2 cells; format: functional, cell-based

Compound | Efficacy (HepG2 [1]) | Efficacy (HepG2 [2]) | EC50 (HepG2 [3]) | EC50 (THP-1 [4]) | IC50 [5] | EC50 (THP-1 [6]) | IC50 [7] | EC50 [8] | IC50 (Progesterone receptor) | IC50 [9] | Efficacy (THP-1 [10]) | Efficacy (THP-1 [11]) | EC50 [12] | EC50 (HepG2 [13])
Fc1ccc(-c2c3cccc(C(F)(F)F)c3nn2Cc2ccc(F)cc2Cl)cc1 [LXR-623] | 58% | 35% | 1910 nM | 1280 nM | 1770 nM | 541 nM | 24 nM | 3.67 µM | > 1 µM | 179 nM | 140% | 100% | 6.66 µM | 2110 nM
Fc1ccc(-c2c3cccc(C(F)(F)F)c3nn2Cc2ccccc2F)cc1 | 72% | 38% | 998 nM | 549 nM | 2160 nM | 551 nM | 33 nM | 4.15 µM | > 10 µM | 248 nM | 132% | 89% | 6.1 µM | 1220 nM
